Laboratory results: patent publication US10520509B2 (Washington State University, priority 2016, dated 2019)

Legend:
[1] = test system: HeLa cells; experiment: Cell viability assay (CCK-8) of DDP probe; format: cell-based; conditions: 10-100 μM, 6 h
Method: (§1) In another embodiment the DDP probes has been designed to visuals exogenous sulfur species in a living system. […] Additionally, the selectivity of the probes can be seen in FIG. 10. […] The probe (20 μm) was applied to the cells for 30 minutes, after which the extracellular probe was washed off and only a weak fluorescence was observed.
HeLa cells were cultured in DMEM high glucose medium supplemented with 10% fetal bovine serum (FBS) at 37° C. under an atmosphere of 5% CO2 and 95% air. The cells were then inoculated in 96-well plates and cultured overnight. DDP-1 in FBS-free medium were administered and cultured for 6 h. The cell viability was measured by cell counter kit (CCK)-8. The absorbance at 450 nm was measured with a microplate reader. Optical density (OD) of the 9 wells in the indicated groups was used to calculate percentage of cell viability according to the formula below: Percentage of cell viability=OD treatment group/OD control group×100% Cell Culture and Fluorescence Imaging

[2] = test system: HeLa cells; experiment: Fluorescence imaging of H2S and H2Sn with DDP probe in cells; format: cell-based; conditions: probe 20 μm 30 min
Method: as §1
The cells were grown on glass-bottom culture dishes (Corning Inc.) in DMEM supplemented with 10% (v/v) FBS, penicillin (100 U/mL) and streptomycin (100 μg/mL) at 37° C. under a humidified atmosphere containing 5% CO2. Before use, the adherent cells were washed one time with FBS-free DMEM. […] After removal of excess probe and washed with PBS (pH 7.4), the cells were incubated with 30 μM Na2S2 or 30 μM Na2S4 at room temperature for 20 min in PBS buffer (pH 7.4, containing 100 μM CTAB). Cell imaging was carried out after removal of the culture solution. For images of CSE-overexpressed COS7 cells.

With [N-]=[N+]=Nc1ccc2c(CC(=O)N3CCN(c4ccc5c(c4)Oc4cc(OC(=O)c6ccccc6SC(=O)c6ccccc6)ccc4C54OC(=O)c5ccccc54)CC3)cc(=O)oc2c1 (stereo not drawn) [DDP-1] the “cytotoxicity (cell viability)” value [1] was “low cytotoxicity”, the “fluorescence in cells after Na2S treatment” value ([2]; Na2S 100 μm, blue and green channel) was “apparent fluorescence enhancement” and the “fluorescence in cells after Na2S2 or in situ generated H2Sn” value ([2]; blue vs green channel) was “blue channel decreased with a coinstantaneous increase in the green channel”.
